These are literature values, as cited in patent publication US20220347185A1, “IBOGAINE FORMULATIONS” (CAAMTECH, INC., priority 2019, published 2022).

Each structure is given as a SMILES string.

One data set relates to humans. The following applies: Mash et al. 2000.
A further data set has as its system rats. The following applies: single dose, Rodriguez et al. 2020.
The conditions of data set [1]: Dzoljic et al. 1988.
A further data set has as its system heroin addicts. The following applies: 1962.
The subject of the next data set is mice. Conditions: da Silva et al. 2006.

For the compound `CC[C@H]1C[C@@H]2C[C@H]3c4[nH]c5ccc(OC)cc5c4CCN(C2)[C@@H]13` [ibogaine], the depressive symptoms result in the data set with humans is reported as “significantly decreased depressive symptoms”. Further, the antidepressant effects entry in the data set with rats is “caused antidepressant effects”. Further, the “withdrawal from narcotics addiction” value in data set [1] was “relieve withdrawal from narcotics addiction”. The “effectiveness of multiple administrations versus a single dose” value in the data set on rats and mice (additional study results) was “more effective in multiple administrations over time than from a single dose”. In addition, the self-administration of opiates result in the data set on rats and mice (rats and mice) is recorded as “reduce or interrupt the self-administration of opiates”. Also, the “cravings and withdrawal symptoms” value in the data set on heroin addicts is “marked reductions in their cravings and withdrawal symptoms”. In addition, where the note is “review papers and meta-analyses”, the treating substance addiction result is listed as “effective for treating substance addiction”. In addition, the treating opioid addiction entry (several current studies) was “effective for treating opioid addiction”.
`CO[C@H]1C=C2[C@H]3CN(Cc4cc5c(cc43)OCO5)[C@H]2C[C@@H]1O` [montanine]: in the data set with mice, the anticonvulsive effect result is given as “anticonvulsive”, the antidepressive effect entry is “antidepressive effects” and the anxiolytic effect result was “anxiolytic”.
As to `CC[C@H]1C[C@@H]2C[C@H]3c4[nH]c5ccc(O)cc5c4CCN(C2)[C@@H]13` [noribogaine], in the data set with rats, the antidepressant effects entry was “caused antidepressant effects”.
